In ChEMBL document CHEMBL1148644, “Human PEPT1 pharmacophore distinguishes between dipeptide transport and binding” (J Med Chem, 2006):
Where a SMILES comes first, the peptide text is derived from it. [ ]: non-standard residue; d: D form. Tic = O=C(O)[C@@H]1Cc2ccccc2CN1; Sar = CNCC(=O)O

Assays:
[1] = target: T1, Solute carrier family 15 member 1 (Homo sapiens, UniProt P46059); assay: Binding affinity to human PEPT1 assessed as inhibition of [14C]Gly-Sar uptake in MDCK cells; format: functional, cell-based
T1 sequence (P46059 whole entry): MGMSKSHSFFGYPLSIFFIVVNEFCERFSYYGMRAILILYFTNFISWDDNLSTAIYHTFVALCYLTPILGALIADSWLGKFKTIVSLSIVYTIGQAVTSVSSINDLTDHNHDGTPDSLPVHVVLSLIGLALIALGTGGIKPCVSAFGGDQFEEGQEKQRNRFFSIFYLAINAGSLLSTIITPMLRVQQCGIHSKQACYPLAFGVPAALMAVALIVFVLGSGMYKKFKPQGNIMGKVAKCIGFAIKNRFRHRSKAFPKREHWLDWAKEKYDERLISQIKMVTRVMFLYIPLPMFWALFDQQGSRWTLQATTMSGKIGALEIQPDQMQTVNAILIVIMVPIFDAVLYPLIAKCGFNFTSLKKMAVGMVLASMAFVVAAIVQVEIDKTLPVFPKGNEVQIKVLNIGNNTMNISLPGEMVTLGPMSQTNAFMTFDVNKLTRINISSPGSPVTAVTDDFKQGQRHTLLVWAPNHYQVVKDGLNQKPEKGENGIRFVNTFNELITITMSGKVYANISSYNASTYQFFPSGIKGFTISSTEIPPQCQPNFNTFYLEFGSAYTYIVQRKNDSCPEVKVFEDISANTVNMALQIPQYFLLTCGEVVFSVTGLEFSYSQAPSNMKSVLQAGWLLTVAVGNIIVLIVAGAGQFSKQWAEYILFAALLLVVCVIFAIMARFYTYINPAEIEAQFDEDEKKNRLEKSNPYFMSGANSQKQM

[2] = target: T1, Solute carrier family 15 member 1; assay: Activation of human PEPT1 expressed in MDCK cells; format: functional, cell-based

Row | SMILES | IC50 ([1]; read-out: IC50) | EC50 [2] | IC50 ([1]; mdck)
1 | N[C@@H](CC(=O)O)C(=O)NCC(=O)O (H-Asp-Gly-OH) | 810 µM | 440 µM | 
2 | NCC(=O)NCC(=O)NCC(N)=O (H-Gly-Gly-Gly-NH2) |  |  | Not Active
3 | N[C@@H](Cc1c[nH]cn1)C(=O)N[C@@H](Cc1c[nH]cn1)C(=O)O | 400 µM | 370 µM | 
4 | N[C@@H](Cc1c[nH]c2ccccc12)C(=O)NCC(=O)O (H-Trp-Gly-OH) | 730 µM | 260 µM | 
5 | NC(=O)CNC(=O)[C@@H](N)Cc1ccc(O)cc1 |  |  | Not Active
6 | CC(=O)N[C@@H](Cc1ccccc1)C(=O)N[C@@H](Cc1ccc(O)cc1)C(N)=O (Ac-Phe-Tyr-NH2) |  |  | Not Active
7 | N[C@@H](CC(=O)O)C(=O)N[C@@H](Cc1c[nH]c2ccccc12)C(=O)O (H-Asp-Trp-OH) | 1310 µM | 470 µM | 
8 | N[C@@H](CCC(=O)O)C(=O)N[C@@H](CCC(=O)O)C(=O)O (H-Glu-Glu-OH) | 620 µM | 1000 µM | 
9 | NCC(=O)N[C@@H](Cc1ccc(O)cc1)C(N)=O (H-Gly-Tyr-NH2) |  |  | Not Active
10 | NCCCC[C@H](N)C(=O)N[C@@H](Cc1c[nH]c2ccccc12)C(=O)O (H-Lys-Trp-OH) | 660 µM |  | 
11 | NCCCC[C@H](NC(=O)[C@@H](N)CCCCN)C(=O)O | 10900 µM |  | 
12 | NC(=O)[C@H](Cc1ccc(O)cc1)NC(=O)[C@@H](N)Cc1ccc(O)cc1 (H-Tyr-Tyr-NH2) | 9110 µM |  | 
13 | NC(N)=NCCC[C@H](NC(=O)[C@@H](N)CCCN=C(N)N)C(=O)O (H-Arg-Arg-OH) | 7310 µM |  | 
14 | NCC(=O)N[C@@H](CCC(=O)O)C(=O)O (H-Gly-Glu-OH) | 650 µM | 1100 µM | 
15 | NCC(=O)N[C@@H](Cc1ccccc1)C(N)=O (H-Gly-Phe-NH2) |  |  | Not Active
16 | O=C(O)CC[C@H](NC(=O)[C@@H]1CCCN1)C(=O)O (H-Pro-Glu-OH) | 12300 µM | > 5000 µM | 

Row | SMILES | IC50 ([1]; read-out: IC50) | EC50 [2] | IC50 ([1]; mdck)
17 | N[C@@H](Cc1c[nH]cn1)C(=O)N[C@@H](Cc1c[nH]c2ccccc12)C(=O)O | 950 µM | 190 µM | 
18 | NCC(=O)N[C@@H](Cc1c[nH]c2ccccc12)C(=O)O (H-Gly-Trp-OH) | 520 µM | 330 µM | 
19 | NCCCC[C@H](NC(=O)[C@@H](N)CCC(=O)O)C(=O)O (H-Glu-Lys-OH) | 720 µM | 310 µM | 
20 | NCC(=O)NCC(=O)O (H-Gly-Gly-OH) | 820 µM | 480 µM | 
21 | CC(C)C[C@H](NC(=O)[C@@H]1CCCN1)C(=O)O (H-Pro-Leu-OH) | 620 µM | 250 µM | 
22 | NCCCC[C@H](NC(=O)[C@@H](N)CCCN=C(N)N)C(=O)O (H-Arg-Lys-OH) | 8110 µM |  | 
23 | NCCCC[C@H](N)C(=O)N[C@@H](CCCN=C(N)N)C(=O)O (H-Lys-Arg-OH) | 7200 µM |  | 
24 | NC(=O)[C@@H]1Cc2ccccc2CN1C(=O)[C@@H](N)Cc1ccc(O)cc1 (H-Tyr-[Tic]-NH2) |  |  | Not Active
25 | CC(C)C[C@H](NC(=O)CN)C(=O)N[C@@H](Cc1ccccc1)C(=O)O (H-Gly-Leu-Phe-OH) | 980 µM | 280 µM | 
26 | CN(CC(=O)O)C(=O)CN [GLYCYLSARCOSINE] (H-Gly-[Sar]-OH) | 1160 µM | 540 µM | 
27 | NCCCC[C@H](NC(=O)[C@@H]1CCCN1)C(=O)O (H-Pro-Lys-OH) | > 16000 µM |  | 
28 | O=C(O)[C@H](CO)NC(=O)[C@@H]1CCCN1 (H-Pro-Ser-OH) | > 16000 µM | 1600 µM | 
29 | NCC(=O)N[C@@H](Cc1c[nH]cn1)C(=O)O (H-Gly-His-OH) | 810 µM | 400 µM | 
30 | O=C(O)CNC(=O)[C@@H]1CCCN1 (H-Pro-Gly-OH) | > 16000 µM |  | 
31 | NCCC[C@H](NC(=O)[C@@H](N)CCCN)C(=O)O |  |  | Not Active
32 | NCC(=O)NCC(=O)NCC(=O)NCC(=O)O (H-GGGG-OH) |  |  | Not Active

Further molecules by falling IC50 ([1]; read-out: IC50), results first:

Row | IC50 ([1]; read-out: IC50) | EC50 [2] | IC50 ([1]; mdck) | SMILES
33 | 510 µM | 420 µM |  | NC(=O)CC[C@H](N)C(=O)N[C@@H](CCC(=O)O)C(=O)O (H-Gln-Glu-OH)
34 | 450 µM | 230 µM |  | C[C@H](N)C(=O)N[C@@H](CC(=O)O)C(=O)O (H-Ala-Asp-OH)
35 | 390 µM | 270 µM |  | NC(N)=NCCC[C@H](N)C(=O)NCC(=O)O (H-Arg-Gly-OH)
36 | 390 µM | 190 µM |  | NCCCC[C@H](N)C(=O)N1CCC[C@@H]1C(=O)O
37 | 390 µM | 510 µM |  | N[C@@H](CCC(=O)O)C(=O)NCC(=O)O (H-Glu-Gly-OH)
38 | 380 µM | 320 µM |  | NCCCC[C@H](N)C(=O)NCC(=O)O (H-Lys-Gly-OH)
39 | 330 µM | 240 µM |  | N[C@@H](Cc1ccc(O)cc1)C(=O)NCC(=O)O
40 | 310 µM | 690 µM |  | CC(C)[C@H](NC(=O)[C@@H](N)CC(=O)O)C(=O)O (H-Asp-Val-OH)
41 | 280 µM | 220 µM |  | C[C@H](N)C(=O)N[C@@H](CCCCN)C(=O)O (H-Ala-Lys-OH)
42 | 260 µM | 100 µM |  | C[C@H](NC(=O)[C@@H](N)Cc1c[nH]c2ccccc12)C(=O)O (H-Trp-Ala-OH)
43 | 260 µM | 80 µM |  | C[C@H](N)C(=O)N[C@@H](Cc1c[nH]c2ccccc12)C(=O)O (H-Ala-Trp-OH)
44 | 250 µM | 80 µM |  | C[C@H](N)C(=O)N[C@@H](C)C(=O)O (H-Ala-Ala-OH)
45 | 250 µM |  |  | N[C@@H](Cc1c[nH]c2ccccc12)C(=O)N[C@@H](Cc1c[nH]c2ccccc12)C(=O)O (H-Trp-Trp-OH)
46 | 240 µM | 210 µM |  | CC(C)C[C@H](NC(=O)CN)C(=O)NCC(=O)O (H-Gly-Leu-Gly-OH)
47 | 210 µM | 70 µM |  | CC(C)[C@H](N)C(=O)N[C@H](C(=O)O)C(C)C [VAL-VAL] (H-Val-Val-OH)
48 | 170 µM | 80 µM |  | CC(C)C[C@H](NC(=O)[C@@H](N)CC(C)C)C(=O)O [LEU-LEU]
49 | 170 µM | 130 µM |  | NCC(=O)N[C@@H](Cc1ccccc1)C(=O)O (H-Gly-Phe-OH)
50 | 170 µM | 110 µM |  | N[C@@H](Cc1ccccc1)C(=O)NCC(=O)O (H-Phe-Gly-OH)
51 | 170 µM | 60 µM |  | C[C@H](N)C(=O)N[C@@H](Cc1ccc(O)cc1)C(=O)O (H-Ala-Tyr-OH)
52 | 150 µM | 100 µM |  | NC(=O)CC[C@H](NC(=O)[C@@H](N)CCC(N)=O)C(=O)O (H-Gln-Gln-OH)
53 | 110 µM | 100 µM |  | C[C@H](NC(=O)[C@@H](N)Cc1ccc(O)cc1)C(=O)O
54 | 100 µM | 40 µM |  | CC(C)[C@H](N)C(=O)N[C@@H](Cc1c[nH]c2ccccc12)C(=O)O [VALYLTRYPTOPHAN] (H-Val-Trp-OH)
55 | 100 µM |  |  | N[C@@H](Cc1ccc(O)cc1)C(=O)N[C@@H](Cc1c[nH]c2ccccc12)C(=O)O (H-Tyr-Trp-OH)
56 | 90 µM | 50 µM |  | CC(C)[C@H](NC(=O)[C@@H](N)Cc1c[nH]c2ccccc12)C(=O)O (H-Trp-Val-OH)
57 | 80 µM |  |  | N[C@@H](Cc1c[nH]c2ccccc12)C(=O)N[C@@H](Cc1ccc(O)cc1)C(=O)O (H-Trp-Tyr-OH)
58 | 70 µM | 80 µM |  | C[C@H](N)C(=O)N[C@@H](Cc1ccccc1)C(=O)O
59 | 70 µM | 170 µM |  | CC(C)C[C@H](NC(=O)CN)C(=O)O
60 | 20 µM | 30 µM |  | NC(=O)[C@H](Cc1ccc(O)cc1)NC(=O)[C@@H](N)Cc1ccccc1 (H-Phe-Tyr-NH2)
